US20260166159A1, “KRAS G12D DEGRADATION AGENT, AND PREPARATION METHOD AND USE THEREFOR” (LEADINGTAC PHARMACEUTICAL (SHAOXING) CO., LTD., priority 2022, published 2026)

Each compound was assayed on KRAS G12D mutant human metastatic pancreatic cancer cell AsPc-1 (assay: 3D cell proliferation inhibition assay, AsPc-1). Conditions: ASPC1, 168 h, AsPc-1, 7 days, CTG, class symbols.
Type: cell-based
Method in brief: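 A 7-day 3D growth at 37 °C, 5% CO2, 5×10^2 cells/well, with final compound concentrations of 10000–0.026 nM and 0.2% DMSO. Read-out: CTG luminescence (60 min, room temperature); % inhibition against DMSO-treated cells and medium blank, fitted versus log concentration to give IC50.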

Compound | IC50 [nM]
C#Cc1cccc2cc(O)cc(-c3ncc4c(N5CC6CCC(C5)N6)nc(OCC5(CN6CCN(CC7CCC8(CC7)CCN(C(=O)c7ccc(Cl)c(N9CCC(=O)NC9=O)c7)CC8)CC6)CC5)nc4c3F)c12 [Example 57, 1-(5-(9-((4-((1-(((4-(3,8-diazabicyclo[3.2.1]octan-3-yl)-7-(8-ethynyl-3-hydroxynaphthalen-1-yl)-8-fluoropyrido[4,3-d]pyrimidin-2-yl)oxy)methyl)cyclopropyl)methyl)piperazin-1-yl)methyl)-3-azaspiro [5.5]undecane-3-carbonyl)-2-chlorophenyl)dihydropyrimidine-2,4(1H,3H)-dione] | ≤ 50
CCc1c(F)ccc2cc(O)cc(-c3ncc4c(N5CC6CCC(C5)N6)nc(OCC5(CN6CCN(CC7CCC8(CC7)CCN(C(=O)c7ccc(OC)c(N9CCC(=O)NC9=O)c7)CC8)CC6)CC5)nc4c3F)c12 [Example 15, 1-(5-(9-((4-((1-(((4-(3,8-diazabicyclo[3.2.1]octan-3-yl)-7-(8-ethyl-7-fluoro-3-hydroxynaphthalen-1-yl)-8-fluoropyrido[4,3-d]pyrimidin-2-yl)oxy)methyl)cyclopropyl)methyl)piperazin-1-yl)methyl)-3-azaspiro[5.5]undecane-3-carbonyl)-2-methoxyphenyl)dihydropyrimidine-2,4(1H,3H)-dione] | ≤ 50

Same assay, conditions: ASPC1, 168 h, AsPc-1, 7 days, CTG, numeric values

Compound | IC50 [nM]
C#Cc1c(F)ccc2cc(O)cc(-c3ccc4c(N5CC6CCC(C5)N6)nc(OCC5(CN6CCN(CC7CCC8(CC7)CCN(C(=O)c7ccc(C)c(N9CCC(=O)NC9=O)c7)CC8)CC6)CC5)nc4c3F)c12 [Example 42, 1-(5-(9-((4-((1-(((4-(3,8-diazabicyclo[3.2.1]octan-3-yl)-7-(8-ethynyl-7-fluoro-3-hydroxynaphthalen-1-yl)-8-fluoroquinazolin-2-yl)oxy)methyl)cyclopropyl)methyl)piperazin-1-yl)methyl)-3-azaspiro[5.5]undecane-3-carbonyl)-2-methylphenyl)dihydropyrimidine-2,4(1H,3H)-dione] | 1.75
C#Cc1c(F)ccc2cc(O)cc(-c3ncc4c(N5CC6CCC(C5)N6)nc(OCC(C)CN5CCN(CC6CCC7(CC6)CCN(C(=O)c6ccc(OC)c(N8CCC(=O)NC8=O)c6)CC7)CC5)nc4c3F)c12 (stereo not drawn) [Example 84, 1-(5-(9-((4-(3-((4-(3,8-diazabicyclo[3.2.1]octan-3-yl)-7-(8-ethynyl-7-fluoro-3-hydroxynaphthalen-1-yl)-8-fluoropyrido[4,3-d]pyrimidin-2-yl)oxy)-2-methylpropyl)piperazin-1-yl)methyl)-3-azaspiro[5.5]undecane-3-carbonyl)-2-methoxyphenyl)dihydropyrimidine-2,4(1H,3H)-dione] | 2.58
C#Cc1c(F)ccc2cc(O)cc(-c3ncc4c(N5CC6CCC(C5)N6)nc(OCC5(CN6CCN(CCCCC7CCC8(CC7)CCN(C(=O)c7ccc(Cl)c(N9CCC(=O)NC9=O)c7)CC8)CC6)CC5)nc4c3F)c12 [Example 31, 1-(5-(9-(4-(4-((1-(((4-(3,8-diazabicyclo[3.2.1]octan-3-yl)-7-(8-ethynyl-7-fluoro-3-hydroxynaphthalen-1-yl)-8-fluoropyrido[4,3-d]pyrimidin-2-yl)oxy)methyl)cyclopropyl)methyl)piperazin-1-yl)butyl)-3-azaspiro[5.5]undecane-3-carbonyl)-2-chlorophenyl)dihydropyrimidine-2,4(1H,3H)-dione] | 5.62
CCc1cccc2cc(O)cc(-c3ncc4c(N5CC6CCC(C5)N6)nc(OCC5(CN6CCN(CC7CCC8(CC7)CCN(C(=O)c7ccc(OC)c(N9CCC(=O)NC9=O)c7)CC8)CC6)CC5)nc4c3F)c12 [Example 20, 1-(5-(9-((4-((1-(((4-(3,8-diazabicyclo[3.2.1]octan-3-yl)-7-(8-ethyl-3-hydroxynaphthalen-1-yl)-8-fluoropyrido[4,3-d]pyrimidin-2-yl)oxy)methyl)cyclopropyl)methyl)piperazin-1-yl)methyl)-3-azaspiro[5.5]undecane-3-carbonyl)-2-methoxyphenyl)dihydropyrimidine-2,4(1H,3H)-dione] | 3.27
